Results: ChEMBL document CHEMBL3751693, “Synthesis, antimicrobial evaluation and molecular modeling of 5-hydroxyisoquinolinium salt series; the effect of the hydroxyl moiety” (Bioorg Med Chem, 2016)

Columns and labels:
Trichosporon asahii [1] = assay: Antimicrobial activity against Trichosporon asahii 1188 after 48 hrs by spectrophotometry; type: functional; details: Trichosporon asahii, 1188, 48 h
[2] = test system: Trichophyton mentagrophytes; assay: Antimicrobial activity against Trichophyton mentagrophytes 445 after 72 hrs by spectrophotometry; type: functional; details: Trichophyton mentagrophytes, 445, 72 h
Lichtheimia corymbifera [3] = assay: Antimicrobial activity against Absidia corymbifera 272 after 24 hrs by spectrophotometry; type: functional; details: Lichtheimia corymbifera, 272, 24 h
Candida tropicalis [4] = assay: Antimicrobial activity against Candida tropicalis 156 after 24 hrs by spectrophotometry; type: functional; details: Candida tropicalis, 156, 24 h
Aspergillus fumigatus [5] = assay: Antimicrobial activity against Aspergillus fumigatus 231 after 48 hrs by spectrophotometry; type: functional; details: Aspergillus fumigatus, 231, 48 h
Trichosporon asahii [6] = assay: Antimicrobial activity against Trichosporon asahii 1188 after 24 hrs by spectrophotometry; type: functional; details: Trichosporon asahii, 1188, 24 h
Enterococcus sp. [7] = assay: Antimicrobial activity against clinical isolate Enterococcus sp. J 1436508 after 24 hrs; type: functional; details: J 1436508, 24 h
Pichia kudriavzevii [8] = assay: Antimicrobial activity against Candida krusei E28 after 48 hrs by spectrophotometry; type: functional; details: E28, 48 h
Candida albicans [9] = assay: Antimicrobial activity against Candida albicans ATCC 44859 after 24 hrs by spectrophotometry; type: functional; details: ATCC 44859, 24 h
[10] = test system: Staphylococcus epidermidis; assay: Antimicrobial activity against clinical isolate Staphylococcus epidermidis H 696608 after 48 hrs; type: functional; details: H 696608, 48 h
Enterococcus sp. [11] = assay: Antimicrobial activity against clinical isolate Enterococcus sp. J 1436508 after 48 hrs; type: functional; details: J 1436508, 48 h
Staphylococcus aureus [12] = assay: Antimicrobial activity against clinical isolate methicillin-resistant Staphylococcus aureus H 599608 after 48 hrs; type: functional; details: H 599608, 48 h
Staphylococcus aureus [13] = assay: Antimicrobial activity against clinical isolate Staphylococcus aureus CCM 451608 after 24 hrs; type: functional; details: CCM 451608, 24 h
Lichtheimia corymbifera [14] = assay: Antimicrobial activity against Absidia corymbifera 272 after 48 hrs by spectrophotometry; type: functional; details: Lichtheimia corymbifera, 272, 48 h
[15] = test system: Trichophyton mentagrophytes; assay: Antimicrobial activity against Trichophyton mentagrophytes 445 after 120 hrs by spectrophotometry; type: functional; details: Trichophyton mentagrophytes, 445, 120 h
Pseudomonas aeruginosa [16] = assay: Antimicrobial activity against clinical isolate Pseudomonas aeruginosa CCM 1961 after 120 hrs; type: functional; details: CCM 1961, 120 h
Escherichia coli [17] = assay: Antimicrobial activity against clinical isolate Escherichia coli CCM 4517 after 48 hrs; type: functional; details: CCM 4517, 48 h
Klebsiella pneumoniae [18] = assay: Antimicrobial activity against clinical isolate Klebsiella pneumoniae D 1175008 after 24 hrs; type: functional; details: D 1175008, 24 h
[19] = Cytotoxicity against CHOK1 cells after 24 hrs by MTT assay; type: cell-based; details: Cricetulus griseus, CHO-K1, 24 h
Pseudomonas aeruginosa [20] = assay: Antimicrobial activity against clinical isolate Pseudomonas aeruginosa CCM 1961 after 72 hrs; type: functional; details: CCM 1961, 72 h
Klebsiella pneumoniae [21] = assay: Antimicrobial activity against clinical isolate Klebsiella pneumoniae D 1175008 after 48 hrs; type: functional; details: D 1175008, 48 h
Klebsiella pneumoniae [22] = assay: Antimicrobial activity against clinical isolate ESBL-Klebsiella pneumoniae J 1436808 after 48 hrs; type: functional; details: J 1436808, 48 h
Candida albicans [23] = assay: Antimicrobial activity against Candida albicans ATCC 44859 after 48 hrs by spectrophotometry; type: functional; details: ATCC 44859, 48 h
Klebsiella pneumoniae [24] = assay: Antimicrobial activity against clinical isolate ESBL-Klebsiella pneumoniae J 1436808 after 24 hrs; type: functional; details: J 1436808, 24 h
Pichia kudriavzevii [25] = assay: Antimicrobial activity against Candida krusei E28 after 24 hrs by spectrophotometry; type: functional; details: E28, 24 h
Escherichia coli [26] = assay: Antimicrobial activity against clinical isolate Escherichia coli CCM 4517 after 24 hrs; type: functional; details: CCM 4517, 24 h
Staphylococcus aureus [27] = assay: Antimicrobial activity against clinical isolate methicillin-resistant Staphylococcus aureus H 599608 after 24 hrs; type: functional; details: H 599608, 24 h
Candida tropicalis [28] = assay: Antimicrobial activity against Candida tropicalis 156 after 48 hrs by spectrophotometry; type: functional; details: Candida tropicalis, 156, 48 h
Nakaseomyces glabratus [29] = assay: Antimicrobial activity against Candida glabrata 20/I after 48 hrs by spectrophotometry; type: functional
[30] = test system: Staphylococcus epidermidis; assay: Antimicrobial activity against clinical isolate Staphylococcus epidermidis H 696608 after 24 hrs; type: functional; details: H 696608, 24 h
Staphylococcus aureus [31] = assay: Antimicrobial activity against clinical isolate Staphylococcus aureus CCM 451608 after 48 hrs; type: functional; details: CCM 451608, 48 h
Nakaseomyces glabratus [32] = assay: Antimicrobial activity against Candida glabrata 20/I after 24 hrs by spectrophotometry; type: functional
Aspergillus fumigatus [33] = assay: Antimicrobial activity against Aspergillus fumigatus 231 after 24 hrs by spectrophotometry; type: functional; details: Aspergillus fumigatus, 231, 24 h

CCCCCCCCCC[n+]1ccc2c(O)cccc2c1
500 µM: MFC (Trichosporon asahii [1]) | MIC (Enterococcus sp. [7]) | MBC (Enterococcus sp. [11]) | MIC (Enterococcus sp. [11]) | MBC (Klebsiella pneumoniae [22]) | MIC (Klebsiella pneumoniae [22]) | MIC (Klebsiella pneumoniae [24]) | MFC (Candida tropicalis [28])
92 µM: IC50 [19]
63 µM: MBC (Escherichia coli [17]) | MIC (Escherichia coli [17]) | MIC (Klebsiella pneumoniae [18]) | MBC (Klebsiella pneumoniae [21]) | MIC (Klebsiella pneumoniae [21]) | MIC (Escherichia coli [26]) | MFC (Nakaseomyces glabratus [29]) | MBC (Staphylococcus aureus [31])
125 µM: MIC (Candida tropicalis [4]) | MFC [15] | MIC (Candida tropicalis [28])
250 µM: MIC (Trichosporon asahii [1]) | MIC (Trichosporon asahii [6]) | MIC (Candida albicans [9]) | MBC [10] | MIC [10] | MIC (Pseudomonas aeruginosa [16]) | MIC (Pseudomonas aeruginosa [20]) | MFC (Candida albicans [23]) | MIC (Candida albicans [23]) | MIC [30]
31 µM: MIC [2] | MFC (Pichia kudriavzevii [8]) | MIC (Pichia kudriavzevii [8]) | MIC (Staphylococcus aureus [12]) | MIC [15] | MIC (Pichia kudriavzevii [25]) | MIC (Staphylococcus aureus [27])
> 500 µM: MIC (Lichtheimia corymbifera [3]) | MFC (Aspergillus fumigatus [5]) | MIC (Aspergillus fumigatus [5]) | MFC (Lichtheimia corymbifera [14]) | MIC (Lichtheimia corymbifera [14]) | MBC (Pseudomonas aeruginosa [16]) | MIC (Aspergillus fumigatus [33])
16 µM: MBC (Staphylococcus aureus [12]) | MIC (Staphylococcus aureus [13]) | MIC (Nakaseomyces glabratus [29]) | MIC (Staphylococcus aureus [31]) | MIC (Nakaseomyces glabratus [32])

CCCCCCCCCCCCCC[n+]1ccc2c(O)cccc2c1
0.5 µM: MIC (Staphylococcus aureus [13]) | MIC (Staphylococcus aureus [31])
63 µM: MIC (Lichtheimia corymbifera [3]) | MIC (Enterococcus sp. [7]) | MIC (Candida albicans [9]) | MBC (Enterococcus sp. [11]) | MIC (Enterococcus sp. [11]) | MIC (Lichtheimia corymbifera [14]) | MFC (Candida albicans [23]) | MIC (Candida albicans [23])
31 µM: MIC (Aspergillus fumigatus [5]) | MFC [15] | MIC (Aspergillus fumigatus [33])
500 µM: MIC (Klebsiella pneumoniae [22])
> 500 µM: MBC (Pseudomonas aeruginosa [16]) | MIC (Pseudomonas aeruginosa [16]) | MBC (Escherichia coli [17]) | MIC (Escherichia coli [17]) | MIC (Klebsiella pneumoniae [18]) | MIC (Pseudomonas aeruginosa [20]) | MBC (Klebsiella pneumoniae [21]) | MIC (Klebsiella pneumoniae [21]) | MBC (Klebsiella pneumoniae [22]) | MIC (Klebsiella pneumoniae [24]) | MIC (Escherichia coli [26])
2 µM: MBC (Staphylococcus aureus [12]) | MIC (Staphylococcus aureus [12]) | MIC (Staphylococcus aureus [27])
16 µM: MIC [2] | MIC [15]
7.8 µM: MFC (Trichosporon asahii [1]) | MIC (Trichosporon asahii [1]) | MIC (Candida tropicalis [4]) | MIC (Trichosporon asahii [6]) | MBC [10] | MFC (Candida tropicalis [28]) | MIC (Candida tropicalis [28]) | MFC (Nakaseomyces glabratus [29])
1 µM: MBC (Staphylococcus aureus [31])
24 µM: IC50 [19]
3.9 µM: MFC (Pichia kudriavzevii [8]) | MIC (Pichia kudriavzevii [8]) | MIC [10] | MIC (Pichia kudriavzevii [25]) | MIC (Nakaseomyces glabratus [29]) | MIC [30] | MIC (Nakaseomyces glabratus [32])
125 µM: MFC (Aspergillus fumigatus [5]) | MFC (Lichtheimia corymbifera [14])

CCCCCCCCCCCC[n+]1ccc2c(O)cccc2c1
125 µM: MIC (Lichtheimia corymbifera [3]) | MIC (Lichtheimia corymbifera [14])
250 µM: MFC (Aspergillus fumigatus [5]) | MFC (Lichtheimia corymbifera [14]) | MBC (Escherichia coli [17]) | MIC (Escherichia coli [17]) | MIC (Escherichia coli [26])
3.9 µM: MBC [10] | MIC [10] | MBC (Staphylococcus aureus [12]) | MIC (Staphylococcus aureus [12]) | MIC (Staphylococcus aureus [27]) | MIC (Nakaseomyces glabratus [29]) | MIC [30] | MIC (Nakaseomyces glabratus [32])
63 µM: MIC (Enterococcus sp. [7]) | MIC (Candida albicans [9]) | MBC (Enterococcus sp. [11]) | MIC (Enterococcus sp. [11]) | MFC [15] | MBC (Pseudomonas aeruginosa [16]) | MIC (Pseudomonas aeruginosa [16]) | MIC (Klebsiella pneumoniae [18]) | MIC (Pseudomonas aeruginosa [20]) | MBC (Klebsiella pneumoniae [21]) | MIC (Klebsiella pneumoniae [21]) | MBC (Klebsiella pneumoniae [22]) | MIC (Klebsiella pneumoniae [22]) | MFC (Candida albicans [23]) | MIC (Candida albicans [23]) | MIC (Klebsiella pneumoniae [24]) | MFC (Candida tropicalis [28])
2 µM: MBC (Staphylococcus aureus [31])
31 µM: MFC (Trichosporon asahii [1]) | MIC (Trichosporon asahii [1]) | MIC [2] | MIC (Candida tropicalis [4]) | MIC (Aspergillus fumigatus [5]) | MIC (Trichosporon asahii [6]) | MIC [15] | MIC (Candida tropicalis [28]) | MIC (Aspergillus fumigatus [33])
7.8 µM: MFC (Pichia kudriavzevii [8]) | MIC (Pichia kudriavzevii [8]) | MIC (Pichia kudriavzevii [25]) | MFC (Nakaseomyces glabratus [29])
36 µM: IC50 [19]
1 µM: MIC (Staphylococcus aureus [13]) | MIC (Staphylococcus aureus [31])

CCCCCCCCCCCCCCCC[n+]1ccc2c(O)cccc2c1
500 µM: MIC (Klebsiella pneumoniae [22])
125 µM: MFC (Trichosporon asahii [1]) | MFC [15] | MFC (Candida albicans [23])
7.8 µM: MIC (Candida tropicalis [4]) | MFC (Pichia kudriavzevii [8]) | MIC (Pichia kudriavzevii [8]) | MIC (Pichia kudriavzevii [25]) | MFC (Candida tropicalis [28]) | MIC (Candida tropicalis [28])
3.9 µM: MFC (Nakaseomyces glabratus [29]) | MIC (Nakaseomyces glabratus [29]) | MIC (Nakaseomyces glabratus [32])
63 µM: MIC (Trichosporon asahii [1]) | MIC (Trichosporon asahii [6]) | MIC (Enterococcus sp. [7]) | MBC [10] | MIC [10] | MBC (Enterococcus sp. [11]) | MIC (Enterococcus sp. [11]) | MIC [30]
> 500 µM: MIC (Lichtheimia corymbifera [3]) | MFC (Aspergillus fumigatus [5]) | MIC (Aspergillus fumigatus [5]) | MFC (Lichtheimia corymbifera [14]) | MIC (Lichtheimia corymbifera [14]) | MBC (Pseudomonas aeruginosa [16]) | MIC (Pseudomonas aeruginosa [16]) | MBC (Escherichia coli [17]) | MIC (Escherichia coli [17]) | MIC (Klebsiella pneumoniae [18]) | MIC (Pseudomonas aeruginosa [20]) | MBC (Klebsiella pneumoniae [21]) | MIC (Klebsiella pneumoniae [21]) | MBC (Klebsiella pneumoniae [22]) | MIC (Klebsiella pneumoniae [24]) | MIC (Escherichia coli [26]) | MIC (Aspergillus fumigatus [33])
0.5 µM: MBC (Staphylococcus aureus [12]) | MIC (Staphylococcus aureus [12]) | MIC (Staphylococcus aureus [13]) | MIC (Staphylococcus aureus [27]) | MBC (Staphylococcus aureus [31]) | MIC (Staphylococcus aureus [31])
16 µM: MIC [2] | MIC (Candida albicans [9]) | MIC [15] | IC50 [19] | MIC (Candida albicans [23])
